From patent publication US9744175B2, “Compositions of combinations of non-covalent DNA binding agents and anti-cancer and/or anti-inflammatory agents and their use in disease treatment” (INDUS PHARMACEUTICALS, INC., priority 2012, dated 2017)
“And” between values parts separate entries of the source, which are not always exact repeats. Equal values may be shown once.

How the values were obtained:
[1] = system: yeast rad50 mutation; assay: Alamar Blue cell survival assay in yeast cells; assay type: cell-based
Method: (§1) The cells are diluted 100-fold in yeast complete medium. 100 μL of diluted cells are seeded in 96 well plates with or without a non-covalent DNA binding compound and incubated for 24 hours at 30° C. The following day, an equal volume of yeast complete medium containing 1% alamar blue is added and incubated at 30° C. for two hours. Fluorescence intensity is measured in a fluorescent reader to calculate the inhibition effect of non-covalent DNA binding agents in mutant and wild type yeast cells.
(§2) Yeast cells that carry mutations in different genes involved in homologous recombination (rad 50, rad51, rad52, and rad57) and nucleotide excision/double strand repair (rad1) are grown to stationary culture overnight.

[2] = system: yeast rad1 mutation; assay: Alamar Blue cell survival assay in yeast cells; assay type: cell-based
Method: as §1, §2

[3] = system: yeast rad52 mutation; assay: Alamar Blue cell survival assay in yeast cells; assay type: cell-based
Method: as §1, §2

[4] = system: yeast rad51 mutation; assay: Alamar Blue cell survival assay in yeast cells; assay type: cell-based
Method: as §1, §2

[5] = system: Wild type yeast; assay: Alamar Blue cell survival assay in yeast cells; assay type: cell-based
Method: as §1, §2

[6] = system: U2OS; assay: Growth inhibition in tumor cell lines (Table 2); assay type: cell-based, human; conditions: Osteosacroma, WT, lack of EGFR
[7] = Intravenous and oral pharmacokinetics in male Sprague-Dawley rats; assay type: in vivo, rat; conditions: for AUC0-inf / AUC0-t / Cmax / Tmax: rat blood; for AUC0-inf / AUC0-t / Cmax: mean ± SD; for Tmax: median; for T1/2 / CLblood / Vdss / clearance as share of normal liver blood flow in rat (55 mL/min/kg) / mean volume of distribution as multiple of total body water / F (oral absolute bioavailability): rat; for T1/2: harmonic mean; for clearance as share of normal liver blood flow in rat (55 mL/min/kg) / mean volume of distribution as multiple of total body water: intravenous administration; for F (oral absolute bioavailability): oral 20 mg/kg vs IV 3 mg/kg, dose-normalised AUC0-inf
Method: Intravenous and oral pharmacokinetic studies are conducted on the novel non-covalent DNA binding agents, NSC 718813, NSC 723734 and NSC 726260, in male Sprague-Dawley rats. The studies are conducted in a parallel design with two groups of four male rats each for intravenous and oral administration of the test agents. The protocols for the studies are approved by the appropriate institutional animal care and use committee.
Groups of rats designated to receive oral doses of the novel non-covalent DNA binding agents of the invention molecules receive an oral dose of 20 mg/kg in a formulation vehicle comprised of N,N-dimethylacetamide (DMA), polyethylene glycol 400 (PEG400), ethanol, Cremophor EL and water (10:10:10:5:65 v/v). The dose volume for the oral doses of the test compounds is 8 mL/kg. Groups of rats are randomized to receive intravenous doses of agents. These rats receive a single intravenous bolus dose of 3 mg/kg of the test compound in a vehicle comprised of DMA:PEG400:ethanol:Cremophor EL:0.9% sodium chloride (saline) (10:10:10:5:65 v/v). The dose volume for intravenous doses of test agents is 1 mL/kg.
Predose blood samples are obtained from all rats from both, oral and intravenous dosing groups. For the intravenously dosed rats, blood samples (100 uL each) are obtained at 0.083, 0.25. 0.5, 1.0, 2.0, 4.0, 8.0, 12.0 and 24.0 hours post-dose. For the oral dose groups, the sampling times are identical to the intravenous dose group, except that the 0.083 hour sample is not collected. Following the collection of the blood samples, an equal volume of water is added to the blood sample to hemolyze the blood sample and the samples are stored frozen at −70° C. until bioanalysis.
Plasma samples are analyzed for the concentration of the test non-covalent DNA binding agents of the invention using an HPLC method with mass spectrometric (MS/MS) detection, following a liquid:liquid extraction of the plasma samples using a dichloromethane:ethyl acetate (20:80) mixture. To a 100 μL aliquot of sample, 50 μL of an internal standard (NSC 723732) is added. After mixing the internal standard wen, 2.5 mL of the extracting solvent (dichloromethane:ethyl acetate 20:80 v/v) is added. The mixture is vortexed for one minute and the samples are centrifuged at 3000 rpm for 3 minutes. Approximately 2 mL of the supernatant is taken from the centrifuged tubes and the sample is dried under a nitrogen stream at 50° C. The residue is reconstituted with 100 μL of the mobile phase and 20 μL is injected into the HPLC system for analysis. The mobile phase is comprised of milli-Q water:acetonitrile:formic acid (20:80:0.05) adjusted to pH 7.5 with ammonia.
The analysis of the test agent concentration is conducted by an HPLC method using a Shimadzu Prominence HPLC system and the eluent is analyzed using an API 4000 LC-MS/MS system (Applied Biosystems). The samples are analyzed on a HyPurity Advance, 50×4.6 mm, 5 u, Thermoelectron column. An injection volume of 20 μL is used for the analytical sample and the flow rate of the mobile phase is 0.6 mL/minute. Mass spectrometric analysis is conducted on the eluent using the API 4000 LC-MS/MS system and the mass parameters are analyzed for MRM transitions using NSC 723732 as the internal standard, in a positive ionization mode at a temperature of 400 C.

[8] = system: SW403; assay: Growth inhibition in tumor cell lines (Table 2); assay type: cell-based, human; conditions: SW403, colon, WT (EGFR over expression)
[9] = system: HCT116 (mlh−); assay: siRNA inhibition of p53 and REV functions, alamar blue growth inhibition; assay type: cell-based, human; conditions: for IC50: no siRNA knock out, read-out: IC50, Control; for Fold improvement in IC50, p53: p53 siRNA vs control; for Fold improvement in IC50, rev: rev siRNA vs control
Method: (§3) siRNA specific for different genes is purchased from Dharmacon (Thermo. Fisher Scientific Dharmacon Products, Lafayette, Colo. 80026) and the protocol recommended by the supplier is utilized. Confluent cells are trypsinized and 5000 cells are seeded in a well in the presence or absence of siRNA in 100 μL medium. The cells are incubated with siRNA for two days. A non-covalent DNA binding agent of the invention is added in a 10 μL volume and incubated for another 48 hours. After treatment with the agent, the medium is replaced with 1% alamar blue containing medium to measure fluorescence after two hours.
as §3, with “from Dharmacon (Thermo Fisher Scientific” for “from Dharmacon (Thermo. Fisher Scientific”, “two hours. […] The results are presented in FIGS. 14-18 (SEQ ID NO:3-12, respectively) and Table 7.” for “two hours.”

[10] = system: U2OS Wild type; assay: siRNA inhibition of MMR, p53 and REV functions, alamar blue growth inhibition; assay type: cell-based, human; conditions: for Fold improvement in IC50, mlh1: mlh1 siRNA vs control; for IC50: no siRNA knock out, read-out: IC50, Control; for Fold improvement in IC50, p53: p53 siRNA vs control; for Fold improvement in IC50, rev: rev siRNA vs control
Method: as §3
as §3, with “from Dharmacon (Thermo Fisher Scientific” for “from Dharmacon (Thermo. Fisher Scientific”, “two hours. […] The results are presented in FIGS. 14-18 (SEQ ID NO:3-12, respectively) and Table 7.” for “two hours.”

[11] = IV-bolus 3 mg/kg, listed as NSC723734, 3 mg/kg

SMILES	IC50 [1]	IC50 [2]	IC50 [3]	IC50 [4]	IC50 [5]	IC50 [6]	AUC0-inf ([7]; IV-bolus 3 mg/kg)	AUC0-t ([7]; IV-bolus 3 mg/kg)	Cmax ([7]; IV-bolus 3 mg/kg)	Tmax ([7]; IV-bolus 3 mg/kg)	T1/2 ([7]; IV-bolus 3 mg/kg)	CLblood ([7]; IV-bolus 3 mg/kg, 3 mg/kg)	clearance as share of normal liver blood flow in rat (55 mL/min/kg) [7]	mean volume of distribution as multiple of total body water [7]	AUC0-inf ([7]; oral solution 20 mg/kg)	AUC0-t ([7]; oral solution 20 mg/kg)	Cmax ([7]; oral solution 20 mg/kg)	Tmax ([7]; oral solution 20 mg/kg)	T1/2 ([7]; oral solution 20 mg/kg)	IC50 [8]	further results
COc1cc2c(cc1OCCCCN1CCN(CCCCOc3cc4c(cc3OC)C(=O)N3CCC[C@H]3C=N4)CC1)N=C[C@@H]1CCCN1C2=O [NSC 723734]	17 µM	15 µM	50 µM	28 µM	> 250 µM	0.178 µM	4405 ng·h/mL	4246 ± 311 ng·h/mL	4053 ng/mL	0.083 h	6.3 h	11.4 ± 0.5 mL/min/kg	about 20%	about 4 times	216 ng·h/mL	196 ± 93 ng·h/mL	90.5 ± 56 ng/mL	0.25 h	2.3 ± 0.7 h	0.55 µM	Vdss ([7]; IV-bolus 3 mg/kg, 3 mg/kg): 3.2 ± 0.3 L/kg; CLblood [7, 11]: 11 mL/min/kg; Vdss [7, 11]: 3 L/kg; F (oral absolute bioavailability) [7]: 0.7%; F (oral absolute bioavailability) ([7]; listed as NSC723734): approximately 1%; Cmax ([7]; oral solution 20 mg/kg, listed as NSC723734): 91 ng/mL; IC50 [9]: 0.3 µM; Fold improvement in IC50, p53 [9]: 2.2 fold; Fold improvement in IC50, rev [9]: 2.2 fold; Fold improvement in IC50, mlh1 [10]: 3.5 fold; IC50 [10]: 0.07 µM; Fold improvement in IC50, p53 [10]: 1.2 fold; Fold improvement in IC50, rev [10]: >70 fold
COc1cc2c(cc1OCCCC(=O)Nc1ccc3ccc4cccc5ccc1c3c45)N=C[C@@H]1CCCN1C2=O [NSC 726260]	20 µM	15 µM	15 µM	4.5 µM	45 µM	0.397 µM	5112 ng·h/mL	5058 ± 874 ng·h/mL	5587 ng/mL	0.083 h	4.8 h	10.4 mL/min/kg and 10.4 ± 2.0 mL/min/kg	about 20%	about 3 times	2536 ng·h/mL	2474 ± 844 ng·h/mL	438 ng/mL	4.0 h	4.6 ± 1.7 h	1.02 µM	Vdss ([7]; IV-bolus 3 mg/kg): 1.9 L/kg; IC50 [9]: 0.75 µM; Fold improvement in IC50, p53 [9]: 3.8 fold; Fold improvement in IC50, rev [9]: 5.0 fold; Fold improvement in IC50, mlh1 [10]: 135 fold; IC50 [10]: 0.4 µM; Fold improvement in IC50, p53 [10]: 1.1 fold; Fold improvement in IC50, rev [10]: 135 fold
